The record followed here is patent publication US20190337989A1, “IMMUNITY INDUCER” (priority 2016, published 2019).

Experiment [1] concerns avian influenza virus. More on the design: species or system mice. To be noted: mouse, in vivo, iv.
Experiment [2] relates to avian influenza virus. Further details: species or system Balb/c mice. To be noted: mouse, in vivo, ip.

Where “and” joins values, the source holds several entries; their conditions need not be identical. Equal entries are not always repeated. Entries after “also recorded” stand apart in the source; their conditions may differ. Where two headings read alike, the source gives them in different places.

Take “Core-[PEG-STQKAID]4 [avian influenza MAP4]”: the “induction of IgG and IgM antibodies against the avian influenza virus” value in the experiment with avian influenza virus [1] is “found to be induced; also recorded: enabled induction of IgG and IgM antibodies”. Moreover, in the experiment on avian influenza virus [2], the IgG concentration result is listed as “higher than 100 ng/ml”; the “induction of IgG and IgM antibodies against the avian influenza virus” value is “enabled induction of IgG and IgM antibodies”; the “mice in which IgM antibodies were induced” value was 5 out of 5 mice and increased in all mice; the “mice with apparent increase in the IgG level” value is 3 mice out of 5 mice. Further, in the experiment with avian influenza virus [2], the “subclasses exhibiting increased IgG antibody levels” value is “IgG and IgG3; also recorded: IgG1 and IgG3”; the “total level of IgG antibody converted to anti-FLAG antibody” value was 157 ng/mL and 154 ng/mL and 106 ng/mL and 122 ng/mL and 148 ng/mL and 83 ng/mL.
